Reference: patent US8551939B2, “Peptide analogues, particularly for the treatment of chronic pain” (Instytut Medycyny Doswiadczalnej I Klinicznej, priority 2008, dated 2013)
Where a SMILES comes first, the peptide text is derived from it. [ ]: non-standard residue; d: D form.

Legend:
Type in all cases: in vivo
[1] = tested on: mice with inflammation due to tumour take; assay: Oncogenic pain model (murine melanoma cells into the hind leg), tail immersion in 55° C. water; settings: two weeks of melanoma tumour development, intraperitoneal, 30 mg/kg
Experimental: In an animal oncogenic pain model, in mice, inflammation was induced via the administration of about a million murine melanoma cells into the hind leg. After two days we observed increasing inflammation due to tumour take. After two weeks of tumour development we examined the effect of Tyrosyl-D-arginyl-phenylalanyl-phenylalanyl-lysyl-lysyl-prolyl-tyrosyl-isoleucyl-leucine against acute pain elicited by tail immersion in 55° C. water.

mice with inflammation = assay: Tail immersion (55° C.) acute pain test in mice with Freund's adjuvant induced paw inflammation; settings: one week after Freund's adjuvant into the paw, intravenous, 20 mg/kg
Experimental: Inflammation was induced in mice by administering Freund's adjuvant into the paw. Inflammation was observed within two days. After a week, we examined the analgesic activity of the peptide analogue Tyrosyl-D-lysyl-phenylalanyl-phenylalanyl-arginyl-arginyl-prolyl-tyrosyl-isoleucyl-leucine against acute pain elicited by immersion of the tail into 55° C.

rats = assay: Analgesic activity against thermal pain after administration into the subarachnoid space via cannulae; settings: subarachnoid cannula
From the text: Two weeks prior to the experiment, rats were implanted with cannulae into the subarachnoid space. On the day of the experiment we examined analgesic activity by administering the peptide Tyrosyl-D-lysyl-phenylalanyl-phenylalanyl-lysyl-lysyl-prolyl-tyrosyl-isoleucyl-leucine.

For `CC[C@H](C)[C@H](NC(=O)[C@H](Cc1ccc(O)cc1)NC(=O)[C@@H]1CCCN1C(=O)[C@H](CCCCN)NC(=O)[C@H](CCCCN)NC(=O)[C@H](Cc1ccccc1)NC(=O)[C@H](Cc1ccccc1)NC(=O)[C@@H](CCCNC(=N)N)NC(=O)[C@@H](N)Cc1ccc(O)cc1)C(=O)N[C@@H](CC(C)C)C(=O)O` [Tyrosyl-D-arginyl-phenylalanyl-phenylalanyl-lysyl-lysyl-prolyl-tyrosyl-isoleucyl-leucine] (H-Y[dR]FFKKPYIL-OH), the “effect against acute pain elicited by tail immersion in 55° C. water” value [1] was “complete analgesis”.

With `CC[C@H](C)[C@H](NC(=O)[C@H](Cc1ccc(O)cc1)NC(=O)[C@@H]1CCCN1C(=O)[C@H](CCCNC(=N)N)NC(=O)[C@H](CCCNC(=N)N)NC(=O)[C@H](Cc1ccccc1)NC(=O)[C@H](Cc1ccccc1)NC(=O)[C@@H](CCCCN)NC(=O)[C@@H](N)Cc1ccc(O)cc1)C(=O)N[C@@H](CC(C)C)C(=O)O` [Tyrosyl-D-lysyl-phenylalanyl-phenylalanyl-arginyl-arginyl-prolyl-tyrosyl-isoleucyl-leucine] (H-Y[dK]FFRRPYIL-OH) the “analgesic activity against acute pain elicited by immersion of the tail into 55° C.” value (mice with inflammation) was “complete analgesis”.

For `CC[C@H](C)[C@H](NC(=O)[C@H](Cc1ccc(O)cc1)NC(=O)[C@@H]1CCCN1C(=O)[C@H](CCCCN)NC(=O)[C@H](CCCCN)NC(=O)[C@H](Cc1ccccc1)NC(=O)[C@H](Cc1ccccc1)NC(=O)[C@@H](CCCCN)NC(=O)[C@@H](N)Cc1ccc(O)cc1)C(=O)N[C@@H](CC(C)C)C(=O)O` [Tyrosyl-D-lysyl-phenylalanyl-phenylalanyl-lysyl-lysyl-prolyl-tyrosyl-isoleucyl-leucine] (H-Y[dK]FFKKPYIL-OH), the “change of analgesic effect on repeated administration (tolerance)” value (rats; daily dose of 5 mg) was “no changes in the extensive analgesic effect”, the “analgesic activity against thermal pain” value (rats; dose of 5 mg) was “complete analgesis” and the “duration of complete analgesis against thermal pain” value (rats; dose of 5 mg) was 1 h.
